Measurements as given in US8192962B2, “Processes for detecting toxic substances” (Daikin Industries, Ltd., priority 2001, dated 2012).

System: Metabolism protein genes
Experiment: DNA chip mRNA expression in yeast, metabolism protein genes (Table 7)
Format: cell-based, Saccharomyces cerevisiae S288C
Method in brief: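 Measured as treated-to-untreated fluorescence ratio on a full-genome yeast DNA chip. Cells (S288C, YPD, 25° C.) were exposed in log phase for two hours to one chemical, dosed to curb growth without killing.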

Structure (SMILES): S=C([S-])NCCNC(=S)[S-].[Zn+2] [(11), zinc N,N′-ethylenebis(dithiocarbamate)]
- The level of expressed mRNA in the presence of chemical substance/The level of expressed mRNA in the absence of chemical substance (yeast gene YJR155W): 15.4
- The level of expressed mRNA in the presence of chemical substance/The level of expressed mRNA in the absence of chemical substance (yeast gene YKL035W): 2.1
- level of expressed mRNA in the presence/in the absence of chemical substance (yeast gene YKL060C): 2.1
- The level of expressed mRNA in the presence of chemical substance/The level of expressed mRNA in the absence of chemical substance (yeast gene YKL091C): 1.7
- The level of expressed mRNA in the presence of chemical substance/The level of expressed mRNA in the absence of chemical substance (yeast gene YKL104C): 2.2
- level of expressed mRNA in the presence/in the absence of chemical substance (yeast gene YKL148C): 1.5
- The level of expressed mRNA in the presence of chemical substance/The level of expressed mRNA in the absence of chemical substance (yeast gene YKL152C): 1.7
- level of expressed mRNA in the presence/in the absence of chemical substance (yeast gene YKL157W): 1.5
- The level of expressed mRNA in the presence of chemical substance/The level of expressed mRNA in the absence of chemical substance (yeast gene YKL213C): 1.3
- The level of expressed mRNA in the presence of chemical substance/The level of expressed mRNA in the absence of chemical substance (yeast gene YKL215C): 0.5
- The level of expressed mRNA in the presence of chemical substance/The level of expressed mRNA in the absence of chemical substance (yeast gene YKR039W): 1.9
- The level of expressed mRNA in the presence of chemical substance/The level of expressed mRNA in the absence of chemical substance (yeast gene YLL058W): 2.0
- level of expressed mRNA in the presence/in the absence of chemical substance (yeast gene YLR006C): 1.5
- level of expressed mRNA in the presence/in the absence of chemical substance (yeast gene YLR044C): 1.1
- level of expressed mRNA in the presence/in the absence of chemical substance (yeast gene YLR056W): 0.8
- level of expressed mRNA in the presence/in the absence of chemical substance (yeast gene YLR058C): 2.6
- level of expressed mRNA in the presence/in the absence of chemical substance (yeast gene YLR081W): 2.6
- level of expressed mRNA in the presence/in the absence of chemical substance (yeast gene YLR089C): 1.7
- The level of expressed mRNA in the presence of chemical substance/The level of expressed mRNA in the absence of chemical substance (yeast gene YLR180W): 1.7
- The level of expressed mRNA in the presence of chemical substance/The level of expressed mRNA in the absence of chemical substance (yeast gene YLR273C): 1.4
- level of expressed mRNA in the presence/in the absence of chemical substance (yeast gene YLR284C): 1.5
- The level of expressed mRNA in the presence of chemical substance/The level of expressed mRNA in the absence of chemical substance (yeast gene YLR299W): 1.7
- The level of expressed mRNA in the presence of chemical substance/The level of expressed mRNA in the absence of chemical substance (yeast gene YLR300W): 1.0
- level of expressed mRNA in the presence/in the absence of chemical substance (yeast gene YLR304C): 1.6
- The level of expressed mRNA in the presence of chemical substance/The level of expressed mRNA in the absence of chemical substance (yeast gene YLR307W): 0.8
- The level of expressed mRNA in the presence of chemical substance/The level of expressed mRNA in the absence of chemical substance (yeast gene YLR348C): 1.3
- level of expressed mRNA in the presence/in the absence of chemical substance (yeast gene YLR354C): 1.7
- level of expressed mRNA in the presence/in the absence of chemical substance (yeast gene YLR372W): 0.9
- level of expressed mRNA in the presence/in the absence of chemical substance (yeast gene YML022W): 1.2
- The level of expressed mRNA in the presence of chemical substance/The level of expressed mRNA in the absence of chemical substance (yeast gene YML054C): 1.4
- The level of expressed mRNA in the presence of chemical substance/The level of expressed mRNA in the absence of chemical substance (yeast gene YML058W): 3.3
- The level of expressed mRNA in the presence of chemical substance/The level of expressed mRNA in the absence of chemical substance (yeast gene YML070W): 1.5
- The level of expressed mRNA in the presence of chemical substance/The level of expressed mRNA in the absence of chemical substance (yeast gene YML100W): 3.2
- The level of expressed mRNA in the presence of chemical substance/The level of expressed mRNA in the absence of chemical substance (yeast gene YMR008C): 1.3
- level of expressed mRNA in the presence/in the absence of chemical substance (yeast gene YMR011W): 1.5
- level of expressed mRNA in the presence/in the absence of chemical substance (yeast gene YMR015C): 1.0
- The level of expressed mRNA in the presence of chemical substance/The level of expressed mRNA in the absence of chemical substance (yeast gene YMR020W): 1.5
- level of expressed mRNA in the presence/in the absence of chemical substance (yeast gene YMR083W): 1.6
- The level of expressed mRNA in the presence of chemical substance/The level of expressed mRNA in the absence of chemical substance (yeast gene YMR105C): 3.0
- The level of expressed mRNA in the presence of chemical substance/The level of expressed mRNA in the absence of chemical substance (yeast gene YMR189W): 8.2
- level of expressed mRNA in the presence/in the absence of chemical substance (yeast gene YMR205C): 1.0
- level of expressed mRNA in the presence/in the absence of chemical substance (yeast gene YMR261C): 0.8
- The level of expressed mRNA in the presence of chemical substance/The level of expressed mRNA in the absence of chemical substance (yeast gene YMR271C): 1.7
- The level of expressed mRNA in the presence of chemical substance/The level of expressed mRNA in the absence of chemical substance (yeast gene YMR296C): 0.8
- level of expressed mRNA in the presence/in the absence of chemical substance (yeast gene YMR323W): 2.5
- The level of expressed mRNA in the presence of chemical substance/The level of expressed mRNA in the absence of chemical substance (yeast gene YNL012W): 1.6
- level of expressed mRNA in the presence/in the absence of chemical substance (yeast gene YNL025C): 1.1
- The level of expressed mRNA in the presence of chemical substance/The level of expressed mRNA in the absence of chemical substance (yeast gene YNL045W): 2.1
- The level of expressed mRNA in the presence of chemical substance/The level of expressed mRNA in the absence of chemical substance (yeast gene YNL104C): 2.1
- The level of expressed mRNA in the presence of chemical substance/The level of expressed mRNA in the absence of chemical substance (yeast gene YNL106C): 0.9
- The level of expressed mRNA in the presence of chemical substance/The level of expressed mRNA in the absence of chemical substance (yeast gene YNL169C): 0.8
- level of expressed mRNA in the presence/in the absence of chemical substance (yeast gene YNL192W): 1.1
- The level of expressed mRNA in the presence of chemical substance/The level of expressed mRNA in the absence of chemical substance (yeast gene YNL231C): 1.3
- The level of expressed mRNA in the presence of chemical substance/The level of expressed mRNA in the absence of chemical substance (yeast gene YNL322C): 0.6
- The level of expressed mRNA in the presence of chemical substance/The level of expressed mRNA in the absence of chemical substance (yeast gene YNL331C): 21.8
- The level of expressed mRNA in the presence of chemical substance/The level of expressed mRNA in the absence of chemical substance (yeast gene YNL332W): 2.6
- The level of expressed mRNA in the presence of chemical substance/The level of expressed mRNA in the absence of chemical substance (yeast gene YNR019W): 0.7
- The level of expressed mRNA in the presence of chemical substance/The level of expressed mRNA in the absence of chemical substance (yeast gene YNR033W): 0.4
- The level of expressed mRNA in the presence of chemical substance/The level of expressed mRNA in the absence of chemical substance (yeast gene YNR059W): 1.0
- The level of expressed mRNA in the presence of chemical substance/The level of expressed mRNA in the absence of chemical substance (yeast gene YOL058W): 2.3
- level of expressed mRNA in the presence/in the absence of chemical substance (yeast gene YOL086C): 2.6
- level of expressed mRNA in the presence/in the absence of chemical substance (yeast gene YOL108C): 1.1
- level of expressed mRNA in the presence/in the absence of chemical substance (yeast gene YOL116W): 1.0
- The level of expressed mRNA in the presence of chemical substance/The level of expressed mRNA in the absence of chemical substance (yeast gene YOL126C): 1.8
- The level of expressed mRNA in the presence of chemical substance/The level of expressed mRNA in the absence of chemical substance (yeast gene YOL153C): 2.4
- level of expressed mRNA in the presence/in the absence of chemical substance (yeast gene YOL156W): 1.1
- The level of expressed mRNA in the presence of chemical substance/The level of expressed mRNA in the absence of chemical substance (yeast gene YOL165C): 17.6
- level of expressed mRNA in the presence/in the absence of chemical substance (yeast gene YOR002W): 1.2
- level of expressed mRNA in the presence/in the absence of chemical substance (yeast gene YOR085W): 1.1
- The level of expressed mRNA in the presence of chemical substance/The level of expressed mRNA in the absence of chemical substance (yeast gene YOR099W): 1.2
- level of expressed mRNA in the presence/in the absence of chemical substance (yeast gene YOR103C): 1.0
- level of expressed mRNA in the presence/in the absence of chemical substance (yeast gene YOR108W): 1.4
- level of expressed mRNA in the presence/in the absence of chemical substance (yeast gene YOR128C): 0.8
- The level of expressed mRNA in the presence of chemical substance/The level of expressed mRNA in the absence of chemical substance (yeast gene YOR130C): 0.6
- level of expressed mRNA in the presence/in the absence of chemical substance (yeast gene YOR142W): 1.5
- level of expressed mRNA in the presence/in the absence of chemical substance (yeast gene YOR176W): 1.4
- level of expressed mRNA in the presence/in the absence of chemical substance (yeast gene YOR178C): 4.1
- level of expressed mRNA in the presence/in the absence of chemical substance (yeast gene YOR251C): 1.0
- The level of expressed mRNA in the presence of chemical substance/The level of expressed mRNA in the absence of chemical substance (yeast gene YOR336W): 1.4
- The level of expressed mRNA in the presence of chemical substance/The level of expressed mRNA in the absence of chemical substance (yeast gene YOR347C): 1.4
- level of expressed mRNA in the presence/in the absence of chemical substance (yeast gene YOR348C): 1.1
- The level of expressed mRNA in the presence of chemical substance/The level of expressed mRNA in the absence of chemical substance (yeast gene YPL017C): 0.4
- level of expressed mRNA in the presence/in the absence of chemical substance (yeast gene YPL028W): 1.2
- level of expressed mRNA in the presence/in the absence of chemical substance (yeast gene YPL057C): 1.6
- level of expressed mRNA in the presence/in the absence of chemical substance (yeast gene YPL135W): 1.3
- level of expressed mRNA in the presence/in the absence of chemical substance (yeast gene YPL148C): 3.5
- The level of expressed mRNA in the presence of chemical substance/The level of expressed mRNA in the absence of chemical substance (yeast gene YPR026W): 1.6
- level of expressed mRNA in the presence/in the absence of chemical substance (yeast gene YPR113W): 2.0
- The level of expressed mRNA in the presence of chemical substance/The level of expressed mRNA in the absence of chemical substance (yeast gene YPR160W): 4.4
- level of expressed mRNA in the presence/in the absence of chemical substance (yeast gene YPR165W): 1.0
- The level of expressed mRNA in the presence of chemical substance/The level of expressed mRNA in the absence of chemical substance (yeast gene YPR167C): 1.9
- level of expressed mRNA in the presence/in the absence of chemical substance (yeast gene YPR183W): 2.5
- The level of expressed mRNA in the presence of chemical substance/The level of expressed mRNA in the absence of chemical substance (yeast gene YPR184W): 3.6
